Data from patent US7235580B2, “Mitotic kinesin inhibitors” (Merck & Co., Inc., priority 2002, dated 2007).

Each compound was assayed against T1, human KSP motor domain (KSP(367H)) (Homo sapiens, UniProt P52732) (assay: Kinesin ATPase In Vitro Assay). Conditions: kinesin motor domain with microtubules, 1 mM ATP, 23° C.; free phosphate by quinaldine red/ammonium molybdate.
T1 construct: were used to amplify the motor domain and the neck linker region; made in house; host or cells: E. coli BL21 (DE3), pRSETa
T1 sequence (P52732 18-359 limits assumed): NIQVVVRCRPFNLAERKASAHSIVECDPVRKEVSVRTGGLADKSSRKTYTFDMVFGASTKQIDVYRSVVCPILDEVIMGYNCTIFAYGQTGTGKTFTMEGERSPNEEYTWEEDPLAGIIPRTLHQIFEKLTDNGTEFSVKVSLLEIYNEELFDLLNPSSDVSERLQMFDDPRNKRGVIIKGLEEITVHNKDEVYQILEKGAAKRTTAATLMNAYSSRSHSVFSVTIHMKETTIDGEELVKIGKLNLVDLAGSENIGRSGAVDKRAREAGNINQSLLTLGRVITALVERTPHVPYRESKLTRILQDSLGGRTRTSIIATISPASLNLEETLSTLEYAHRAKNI
Type: biochemical
Text: I. Kinesin ATPase In Vitro Assay
Cloning and Expression of Human Poly-histidine Tagged KSP Motor Domain (KSP(367H))
Plasmids for the expression of the human KSP motor domain construct were cloned by PCR using a pBluescript full length human KSP construct (Blangy et al., Cell, vol. 83, pp 1159-1169, 1995) as a template. The N-terminal primer 5′-[…] (SEQ.ID.NO.: 1) and the C-terminal primer 5′-[…] […] (SEQ.ID.NO.: 2) were used to amplify the motor domain and the neck linker region. The PCR products were digested with AseI and XhoI, ligated into the NdeI/XhoI digestion product of pRSETa (Invitrogen) and transformed into E. coli BL21 (DE3).
Cells were grown at 37° C. to an OD600 of 0.5. After cooling the culture to room temperature expression of KSP was induced with 100 μM IPTG and incubation was continued overnight. Cells were pelleted by centrifugation and washed once with ice-cold PBS. Pellets were flash-frozen and stored −80° C.
Cell pellets were thawed on ice and resuspended in lysis buffer (50 mM K-HEPES, pH 8.0, 250 mM KCl, 0.1% Tween, 10 mM imidazole, 0.5 mM Mg-ATP, 1 mM PMSF, 2 mM benzimidine, 1× complete protease inhibitor cocktail (Roche)). Cell suspensions were incubated with 1 mg/ml lysozyme and 5 mM β-mercaptoethanol on ice for 10 minutes, followed by sonication (3×30 sec). All subsequent procedures were performed at 4° C. Lysates were centrifuged at 40,000×g for 40 minutes. Supernatants were diluted and loaded onto an SP Sepharose column (Pharmacia, 5 ml cartridge) in buffer A (50 mM K-HEPES, pH 6.8, 1 mM MgCl2, 1 mM EGTA, 10 μM Mg-ATP, 1 mM DTT) and eluted with a 0 to 750 mM KCl gradient in buffer A. Fractions containing KSP were pooled and incubated with Ni-NTA resin (Qiagen) for one hour. The resin was washed three times with buffer B (Lysis buffer minus PMSP and protease inhibitor cocktail), followed by three 15-minute incubations and washes with buffer B. Finally, the resin was incubated and washed for 15 minutes three times with buffer C (same as buffer B except for pH 6.0) and poured into a column. KSP was eluted with elution buffer (identical to buffer B except for 150 mM KCl and 250 mM imidazole). KSP-containing fractions were pooled, made 10% in sucrose, and stored at −80° C.
Microtubules are prepared from tubulin isolated from bovine brain. Purified tubulin (>97% MAP-free) at 1 mg/ml is polymerized at 37° C. in the presence of 10 μM paclitaxel, 1 mM DTT, 1 mM GTP in BRB80 buffer (80 mM K-PIPES, 1 mM EGTA, 1 mM MgCl2 at pH 6.8). The resulting microtubules are separated from non-polymerized tubulin by ultracentrifugation and removal of the supernatant. The pellet, containing the microtubules, is gently resuspended in 10 μM paclitaxel, 1 mM DTT, 50 μg/ml ampicillin, and 5 μg/ml chloramphenicol in BRB80.
The kinesin motor domain is incubated with microtubules, 1 mM ATP (1:1 MgCl2: Na-ATP), and compound at 23° C. in buffer containing 80 mM K-HEPES (pH 7.0), 1 mM EGTA, 1 mM DTT, 1 mM MgCl2, and 50 mM KCl. The reaction is terminated by a 2-10 fold dilution with a final buffer composition of 80 mM HEPES and 50 mM EDTA. Free phosphate from the ATP hydrolysis reaction is measured via a quinaldine red/ammonium molybdate assay by adding 150 μl of quench C buffer containing a 2:1 ratio of quench A:quench B. Quench A contains 0.1 mg/ml quinaldine red and 0.14% polyvinyl alcohol; quench B contains 12.3 mM ammonium molybdate tetrahydrate in 1.15 M sulfuric acid. The reaction is incubated for 10 minutes at 23° C., and the absorbance of the phospho-molybdate complex is measured at 540 nm.

Compound	IC50 [µM]
COCC1(c2ccccc2)C=C(c2cc(F)ccc2F)CN1C(=O)N(C)C (centres unmarked) [Compound 2-1, 4-(2,5-Difluorophenyl)-2-(methoxymethyl)-N,N-dimethyl-2-phenyl-2,5-dihydro-1H-pyrrole-1-carboxamide]	≤ 50
CN(C(=O)N1CC(c2cc(F)ccc2F)=C[C@@]1(CO)c1ccccc1)C1CCN(C2CC2)CC1 [Compound 15-1, (2S)-N-(1-cyclopropylpiperidin-4-yl)-4-(2,5-difluorophenyl)-2-(hydroxymethyl)-N-methyl-2-phenyl-2,5-dihydro-1H-pyrrole-1-carboxamide]	≤ 50
CN(C)C(=O)N1CC(c2cc(Cl)ccc2F)=CC1(CCCNS(C)(=O)=O)c1ccccc1 (centres unmarked) [Compound 21-1, 4-(5-chloro-2-fluorophenyl)-N,N-dimethyl-2-{3-[(methylsulfonyl)amino]propyl}-2-phenyl-2,5-dihydro-1H-pyrrole-1-carboxamide]	≤ 50
CN(C(=O)N1CC(c2cc(F)ccc2F)=CC1(CO[Si](C)(C)C(C)(C)C)c1ccccc1)C1CCN(CC(=O)OCc2ccccc2)CC1 (centres unmarked) [Compound 16-1]	≤ 50
CN(C)C(=O)N1CC(c2cc(F)ccc2F)=C[C@@]1(CCC(N)C(F)F)c1ccccc1 (stereo partly drawn) [Compound 31-3, (2S)-2-(3-amino-4,4-difluorobutyl)-4-(2,5-difluorophenyl)-N,N-dimethyl-2-phenyl-2,5-dihydro-1H-pyrrole-1-carboxamide]	≤ 50
CN(C(=O)N1CC(c2cc(F)ccc2F)=CC1(CO)c1ccccc1)C1CCN(C(CF)CF)CC1 (centres unmarked) [Compound 14-1]	≤ 50
CN(C)C(=O)N1CC(c2cc(Cl)ccc2F)=CC1(CCCNC(N)=O)c1ccccc1 (centres unmarked) [Compound 23-1, 2-{3-[(aminocarbonyl)amino]propyl}-4-(5-chloro-2-fluorophenyl)-N,N-dimethyl-2-phenyl-2,5-dihydro-1H-pyrrole-1-carboxamide]	≤ 50
CN(C)C(=O)N1CC(c2cc(F)ccc2F)=CC1(CO)c1ccccc1 (centres unmarked) [Compound 1-9, 4-(2,5-Difluorophenyl)-2-(hydroxymethyl)-N,N-dimethyl-2-phenyl-2,5-dihydro-1H-pyrrole-1-carboxamide]	≤ 50
CN(C)C(=O)N1CC(c2cc(F)ccc2F)=CC1(CCC(=O)NN)c1ccccc1 (centres unmarked) [Compound 25-1, 4-(2,5-difluorophenyl)-2-(3-hydrazino-3-oxopropyl)-N,N-dimethyl-2-phenyl-2,5-hydro-1H-pyrrole-1-carboxamide]	≤ 50
CN(C)C(=O)N1CC(c2cc(F)ccc2F)=CC1(COCCN)c1ccccc1 (centres unmarked) [Compound 2-3, 2-[(2-Aminoethoxy)methyl]-4-(2,5-difluorophenyl)-N,N-dimethyl-2-phenyl-2,5-dihydro-1H-pyrrole-1-carboxamide]	≤ 50
COC(=O)NCCCC1(c2ccccc2)C=C(c2cc(Cl)ccc2F)CN1C(=O)N(C)C (centres unmarked) [Compound 22-1, methyl 3-{4-(5-chloro-2-fluorophenyl)-1-[(dimethylamino)carbonyl]-2-phenyl-2,5-dihydro-1H-pyrrol-2-yl}propylcarbamate]	≤ 50
CN(C)C(=O)N1CC(c2cc(F)ccc2F)=CC1(COCCO)c1ccccc1 (centres unmarked) [Compound 2-2, 4-(2,5-Difluorophenyl)-2-[(2-hydroxyethoxy)methyl]-N,N-dimethyl-2-phenyl-2,5-dihydro-1H-pyrrole-1-carboxamide]	≤ 50

More lines, now with the values ahead:

IC50 [µM]	Compound
≤ 50	CN(C)CC(=O)N1CCC(N(C)C(=O)N2CC(c3cc(F)ccc3F)=CC2(CO)c2ccccc2)CC1 (centres unmarked) [Compound 7-3, 4-(2,5-difluorophenyl)-N-[1-(N,N-dimethylglycyl)piperidin-4-yl]-2-(hydroxymethyl)-N-methyl-2-phenyl-2,5-dihydro-1H-pyrrole-1-carboxamide]
≤ 50	CN(C)C(=O)N1CC(c2cc(F)ccc2F)=CC1(CCCN)c1ccccc1 (centres unmarked) [Compound 4-3, 2-(3-Aminopropyl)-4-(2,5-difluorophenyl)-N,N-dimethyl-2-phenyl-2,5-dihydro-1H-pyrrole-1-carboxamide]
≤ 50	COCC1(c2ccccc2)C=C(c2cc(F)ccc2F)CN1C(=O)N(C)C1CCN(C)CC1 (centres unmarked) [Compound 18-2, 4-(2,5-difluorophenyl)-2-(methoxymethyl)-N-methyl-N-(1-methylpiperidin-4-yl)-2-phenyl-2,5-dihydro-1H-pyrrole-1-carboxamide]
≤ 50	CN(C)C(=O)N1CC(c2cc(F)ccc2F)=CC1(CCCO)c1ccccc1 (centres unmarked) [Compound 4-1a, 2-(3-Hydroxypropyl)-4-(2,5-difluorophenyl)-N,N-dimethyl-2-phenyl-2,5-dihydro-1H-pyrrole-1-carboxamide]
≤ 50	CN(C)CCCC1(c2ccccc2)C=C(c2cc(F)ccc2F)CN1C(=O)C(C)(C)O (centres unmarked) [Compound 29-3, 1-{4-(2,5-difluorophenyl)-2-[3-(dimethylamino)propyl]-2-phenyl-2,5-dihydro-1-pyrrol-1-yl}-2-methyl-1-oxopropan-2-ol]
≤ 50	CN1CCC(N(C)C(=O)N2CC(c3cc(F)ccc3F)=C[C@@]2(CO)c2ccccc2)CC1 (stereo in doubt) [Compound 1-10, 4-(2,5-Difluorophenyl)-2-(hydroxymethyl)-N-methyl-N-(1-methylpiperidin-4-yl)-2-phenyl-2,5-dihydro-1H-pyrrole-1-carboxamide]
≤ 50	CN(C(=O)N1CC(c2cc(F)ccc2F)=CC1(CO)c1ccccc1)C1CCN(CCO)CC1 (centres unmarked) [Compound 11-1, 4-(2,5-difluorophenyl)-N-[1-(2-hydroxyethyl)piperidin-4-yl]-2-(hydroxymethyl)-N-methyl-2-phenyl-2,5-dihydro-1H-pyrrole-1-carboxamide]
≤ 50	CN(C)CCCC1(c2ccccc2)C=C(c2cc(F)ccc2F)CN1C(=O)N(C)C1CCOCC1 (centres unmarked) [Compound 28-3, 4-(2,5-difluorophenyl)-2-[3-(dimethylamino)propyl]-N-methyl-2-phenyl-N-tetrahydro-2H-pyran-4-yl-2,5-dihydro-1H-pyrrole-1-carboxamide]
≤ 50	CN(C)CCCC1(c2ccccc2)C=C(c2cc(F)ccc2F)CN1C(=O)N(C)C (centres unmarked) [Compound 4-4, 4-(2,5-Difluorophenyl)-2-[3-(dimethylamino)propyl]-N,N-dimethyl-2-phenyl-2,5-dihydro-1H-pyrrole-1-carboxamide]
≤ 50	CN(C(=O)N1CC(c2cc(F)ccc2F)=CC1(CO)c1ccccc1)C1CCN(CS(C)(=O)=O)CC1 (centres unmarked) [Compound 13-1, 4-(2,5-difluorophenyl)-2-(hydroxymethyl)-N-methyl-N-{1-[(methylsulfonyl)methyl]piperidin-4-yl}-2-phenyl-2,5-dihydro-1H-pyrrole-1-carboxamide]
≤ 50	CN(C)CCNCC1(c2ccccc2)C=C(c2cc(F)ccc2F)CN1C(=O)N(C)C (centres unmarked) [Compound 3-2, 4-(2,5-Difluorophenyl)-2-({[2-(dimethylamino)ethyl]amino}methyl)-N,N-dimethyl-2-phenyl-2,5-dihydro-1H-pyrrole-1-carboxamide]
